These results are taken from patent US12605330B2, “Screening method for offensive odor-suppressing material” (Takasago International Corporation, priority 2019, dated 2026).

In assay [1] the target is T1, human olfactory receptor OR4Q3 (Homo sapiens, UniProt Q8NH05).
T1 construct: N-terminal 20 amino acid residues of bovine rhodopsin (Rho tag); expressed in transfected cells; host or cells: HEK293T cells, pME18S expression vector, co-transfected with RTP1S vector and luciferase reporters
T1 sequence (Q8NH05 1-313): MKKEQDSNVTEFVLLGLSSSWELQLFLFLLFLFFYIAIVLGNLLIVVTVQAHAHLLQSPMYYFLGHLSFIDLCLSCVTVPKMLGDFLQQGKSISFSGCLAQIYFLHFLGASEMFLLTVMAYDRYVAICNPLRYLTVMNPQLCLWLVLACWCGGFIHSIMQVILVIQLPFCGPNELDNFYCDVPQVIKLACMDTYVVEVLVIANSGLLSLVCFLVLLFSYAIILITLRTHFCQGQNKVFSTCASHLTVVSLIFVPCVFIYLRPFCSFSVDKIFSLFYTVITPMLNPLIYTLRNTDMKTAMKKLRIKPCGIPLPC
As to the kind of experiment: Luciferase reporter gene assay, response of olfactory receptor OR4Q3 to odorous substance. The format is cell-based. The conditions noted are these: HEK293T cells expressing OR4Q3, various concentrations, 3 hours stimulation; FIGS. 2, 4, 5, 6. Here is the method:
Human olfactory receptor genes were obtained by PCR cloning with Human Genomic DNA: Female (Promega) on the basis of their sequence information registered in GenBank. Into pME18S vectors, the N-terminal 20 amino acid residues of bovine rhodopsin were integrated and the resulting human olfactory receptor genes were integrated respectively downstream thereof to obtain human olfactory receptor gene expression vectors.
(§1) Each human olfactory receptor gene expression vector (0.05 μg), RTP1S vector (0.01 μg), firefly luciferase vector pGL4.29 containing a cAMP response element promoter (Promega, 0.01 μg) and Renilla luciferase vector pGL4.74 containing a thymidine kinase promoter (Promega, 0.005 μg) were dissolved in 10 μL of Opti-MEMI (gibco) to give a gene solution (for one well). HEK293T cells were seeded in 100 μL volumes into 96-well plates (Biocoat, Corning) at a cell density reaching confluence after 24 hours, and the gene solutions were added to the respective wells to cause gene transfer into the cells by lipofection techniques in accordance with the usage of Lipofectamine 3000, followed by culture at 37° C. under a 5% carbon dioxide atmosphere for 24 hours.
(§2) After removal of the culture solutions, an odorous substance serving as an analyte, which had been prepared at a given concentration with CD293 (gibco) medium (supplemented with […] L-glutamine), was added in 50 μL volumes to stimulate the cells for 3 hours, followed by luciferase activity measurement in accordance with the usage of a Dual-Luciferase Reporter Assay System (Promega). The response intensity of each olfactory receptor polypeptide was expressed as a fold increase value, which was determined by dividing the luciferase activity generated upon stimulation with the odorous substance by the luciferase activity generated in a test system not containing the odorous substance.
(§3) The cells engineered to express human olfactory receptors OR2C1 and OR4Q3 were used to measure the response of these receptors to various concentrations of 1-octen-3-one by the luciferase reporter gene assay.
A general note: Reporter assays use an easily measured gene product as a stand-in for the process of interest.

The test system of assay [2] is cells not engineered to express the olfactory receptors. As to the kind of experiment: Mock test, luciferase reporter gene assay. The format is cell-based, human. Here is the method: as §1, §2, §3
In assay [3] the target is T2, human olfactory receptor OR2C1 (Homo sapiens, UniProt O95371).
T2 construct: N-terminal 20 amino acid residues of bovine rhodopsin (Rho tag); expressed in transfected cells; host or cells: HEK293T cells, pME18S expression vector, co-transfected with RTP1S vector and luciferase reporters
T2 sequence (O95371 1-312): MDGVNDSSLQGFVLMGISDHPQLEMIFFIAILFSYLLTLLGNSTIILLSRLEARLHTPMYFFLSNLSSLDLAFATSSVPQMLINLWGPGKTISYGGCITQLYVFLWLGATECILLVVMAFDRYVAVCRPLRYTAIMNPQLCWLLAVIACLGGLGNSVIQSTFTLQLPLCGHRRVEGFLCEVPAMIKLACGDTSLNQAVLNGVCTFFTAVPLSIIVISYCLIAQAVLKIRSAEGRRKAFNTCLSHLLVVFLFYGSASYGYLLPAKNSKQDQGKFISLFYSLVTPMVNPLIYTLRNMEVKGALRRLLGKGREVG
As to the kind of experiment: Luciferase reporter gene assay, response of olfactory receptor OR2C1 to odorous substance. As to conditions: HEK293T cells expressing OR2C1, various concentrations, 3 hours stimulation; FIGS. 1 and 3. The format is cell-based.
Excerpt: (§4) Human olfactory receptor genes were obtained by PCR cloning with Human Genomic DNA: Female (Promega) on the basis of their sequence information registered in GenBank. Into pME18S vectors, the N-terminal 20 amino acid residues of bovine rhodopsin were integrated and the resulting human olfactory receptor genes were integrated respectively downstream thereof to obtain human olfactory receptor gene expression vectors. […]
as §2, with “substance. […]” for “substance.”

The target of a further assay is T3, OR2C1 (Homo sapiens, UniProt O95371).
T3 construct: N-terminal 20 amino acid residues of bovine rhodopsin (Rho tag); expressed in transfected cells; host or cells: HEK293T cells, pME18S expression vector, co-transfected with RTP1S vector and luciferase reporters
T3 sequence (O95371 1-312): T2 sequence (O95371 1-312)
As to the kind of experiment: Suppressive effect of offensive odor-suppressing materials on the response of OR2C1 (luciferase reporter gene assay). The conditions noted are these: mixed at various concentrations with 30 μM 1-octen-3-one; FIGS. 7 and 8. The format is cell-based.
Excerpt: as §4
as §2, with “substance. […]” for “substance.”

For the next assay, the target named is T4, olfactory receptor OR2W1 (Homo sapiens, UniProt Q9Y3N9).
T4 sequence (Q9Y3N9 1-320): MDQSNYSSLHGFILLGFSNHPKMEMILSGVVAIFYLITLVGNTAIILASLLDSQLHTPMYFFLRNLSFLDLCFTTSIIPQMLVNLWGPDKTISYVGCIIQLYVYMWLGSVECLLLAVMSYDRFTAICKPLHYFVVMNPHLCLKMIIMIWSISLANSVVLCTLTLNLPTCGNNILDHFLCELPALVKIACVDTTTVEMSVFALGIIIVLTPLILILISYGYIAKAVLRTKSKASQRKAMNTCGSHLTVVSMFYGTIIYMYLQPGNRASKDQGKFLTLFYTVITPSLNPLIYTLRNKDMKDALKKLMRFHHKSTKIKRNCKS
As to conditions: background art; cited from earlier work.

The conditions of assay [4]: background art; cited from earlier work.

Each structure is given as a SMILES string.

Take `C=CC(O)CC=CCC` (stereo not drawn) [1,5-octadien-3-ol]: the “response of OR4Q3 to the odorous substance (fold increase value)” value (“response of OR4Q3 … (fold increase value)” for short) in assay [1] is on record as “respond to 1,5-octadien-3-ol in a concentration-dependent manner”. For the same compound, the “response in Mock test” value in assay [2] is reported as “no response was observed”. As to `C=CC(=O)CC=CCC` [1,5-octadien-3-one], the “response of OR4Q3 … (fold increase value)” value in assay [1] was “respond to 1,5-octadien-3-one in a concentration-dependent manner”. The “response of OR2C1 to the odorous substance (fold increase value)” value in assay [3] is on record as “respond to 1,5-octadien-3-one in a concentration-dependent manner”. The “response in Mock test” value in assay [2] is listed as “no response was observed”.

Take `CCCC(O)CCC1C(C)CCCC1(C)C` (stereo not drawn) [1-(2,2,6-trimethylcyclohexyl)hexan-3-ol]: the “suppressive effect on the response of OR2C1 to 1-octen-3-one (ratio of fold increase value, without material set to 100)” value on OR2C1 is on record as “reducing the response of OR2C1 to 1-octen-3-one in a concentration-dependent manner”. In the case of `C=CC(O)CCCCC` (stereo not drawn) [1-octen-3-ol], the “response of OR4Q3 … (fold increase value)” value in assay [1] is on record as “respond to 1-octen-3-ol in a concentration-dependent manner”. In addition, the “response in Mock test” value in assay [2] is “no response was observed”. Consider `C=CC(=O)CCCCC` [1-octen-3-one], for which, in assay [1], the “response of OR4Q3 … (fold increase value)” value was “respond to 1-octen-3-one in a concentration-dependent manner”. In addition, in assay [3], the “response of OR2C1 to the odorous substance (fold increase value)” value was “respond to 1-octen-3-one in a concentration-dependent manner”. In addition, in assay [2], the “response in Mock test” value was “no response was observed”. For the compound `CC(=CCC1CC=C(C)C1(C)C)CO` (stereo not drawn) [2-methyl-4-(2,2,3-trimethylcyclopent-3-enyl)but-2-en-1-ol], the “suppressive effect on the response of OR2C1 to 1-octen-3-one (ratio of fold increase value, without material set to 100)” value on OR2C1 is “reducing the response of OR2C1 to 1-octen-3-one in a concentration-dependent manner”. On to `CC(C)c1cccc(C(C)CC=O)c1` (stereo not drawn) [florhydral], for which, at olfactory receptor OR2W1, the “inhibition of the activity of OR2W1” value was “inhibiting the activity of this OR2W1”. The “suppression of offensive odor induced by hexanoic acid in sensory testing” value in assay [4] is recorded as “suppress an offensive odor induced by hexanoic acid”. On to `CCCCCC(=O)O` [hexanoic acid], for which the “response of OR2W1 to the odorous substance” value on olfactory receptor OR2W1 was “responds to hexanoic acid”.
